Converted amounts (≈) assume the structure as drawn.
Legend:
[1] = Permeability of the compound in pH 7.05 phosphate buffer measured after 3 hrs by artificial membrane permeability assay based LC-MS analysis; type: ADME; conditions: PAMPA, read-out: permeability
[2] = Clearance in Wistar Han rat at 1 mg/kg, iv by LC-MS/MS analysis; type: ADME, organism-based; conditions: in vivo
[3] = Intrinsic clearance in rat hepatocytes at 0.5 uM measured after 10 mins by LC-MS/MS analysis; type: ADME, cell-based, Hepatocyte
[4] = Intrinsic clearance in human hepatocytes at 0.5 uM measured after 10 mins by LC-MS/MS analysis; type: ADME, cell-based, Hepatocyte
[5] = Clearance in Wistar Han rat at 1 mg/kg, iv by LC-MS/MS analysis relative to hepatic blood flow; type: ADME, organism-based; conditions: in vivo
[6] = Intrinsic clearance in minipig hepatocytes at 0.5 uM measured after 10 mins by LC-MS/MS analysis; type: ADME, cell-based, Sus scrofa domesticus, Hepatocyte; conditions: pig
[7] = Half life in Wistar Han rat at 1 mg/kg, iv by LC-MS/MS analysis; type: ADME, organism-based; conditions: in vivo
[8] = Volume of distribution at steady state in Wistar Han rat at 1 mg/kg, iv or 1 mg/kg, po by LC-MS/MS analysis; type: ADME, organism-based; conditions: in vivo, read-out: Vdss
[9] = Kinetic solubility of the compound in pH 7.4 phosphate buffered saline measured after 1 hr by CLND method; type: physicochemical; conditions: read-out: Kinetic_solubility
[10] = AUC (infinity) in Wistar Han rat at 1 mg/kg, po by LC-MS/MS analysis; type: ADME, organism-based; parameters: dose 1 mg/kg, time infinity, route oral; conditions: in vivo
[11] = Oral bioavailability in Wistar Han rat at 1 mg/kg by LC-MS/MS analysis; type: ADME, organism-based; conditions: in vivo
[12] = AUC (0 to 24 hrs) in Wistar Han rat at 30 mg/kg, po administered once daily for 7 days by LC-MS/MS analysis; type: ADME, organism-based; parameters: dose 30 mg/kg, time < 24 hr, route oral; conditions: in vivo
[13] = AUC (0 to 24 hrs) in Wistar Han rat at 100 mg/kg, po administered once daily for 7 days by LC-MS/MS analysis; type: ADME, organism-based; parameters: time < 24 hr, dose 100 mg/kg, route oral; conditions: in vivo
[14] = AUC (0 to 4 hrs) in Wistar Han rat at 300 mg/kg, po administered once daily for 7 days by LC-MS/MS analysis; type: ADME, organism-based; parameters: dose 300 mg/kg, time < 4 hr, route oral; conditions: in vivo
[15] = Time at which plasma concentration stays at 10 times Kd(app) for binding affinity to PI3Kdelta in human HL60 cell extract in Wistar Han rat at 10 to 100 mg/kg, po administered twice daily for 7 days; type: ADME, organism-based; conditions: in vivo, 168 h
[16] = Time at which plasma concentration stays at 10 times Kd(app) for binding affinity to PI3Kdelta in human HL60 cell extract in Wistar Han rat at 30 to 300 mg/kg, po administered once daily for 7 days; type: ADME, organism-based; conditions: in vivo, 168 h
[17] = Time at which plasma concentration stays at 10 times Kd(app) for binding affinity to VPS34 in human HL60 cell extract in Wistar Han rat at 100 mg/kg, po administered once daily for 7 days; type: ADME, organism-based; conditions: in vivo, 168 h
[18] = AUC (0 to 24 hrs) in Wistar Han rat at 10 mg/kg, po administered twice daily for 7 days by LC-MS/MS analysis; type: ADME, organism-based; parameters: dose 10 mg/kg, time < 24 hr, route oral; conditions: in vivo
[19] = AUC (0 to 24 hrs) in Wistar Han rat at 30 mg/kg, po administered twice daily for 7 days by LC-MS/MS analysis; type: ADME, organism-based; parameters: dose 30 mg/kg, time < 24 hr, route oral; conditions: in vivo
[20] = AUC (0 to 24 hrs) in Wistar Han rat at 100 mg/kg, po administered twice daily for 7 days by LC-MS/MS analysis; type: ADME, organism-based; parameters: dose 100 mg/kg, time < 24 hr, route oral; conditions: in vivo

Row | Compound | clearance [2] [L/h/kg] | Intrinsic clearance (CLint) [3] [mL/min/g] | intrinsic clearance [4] [mL/min/g] | CL [5] [%] | CLH [6] [mL/min/g] | half-life [7] [h] | Vd [8] [L/kg] | solubility kinetic at 1 h [9] [mg/mL] | AUC(0-inf) [10] [µg·h/mL] | other results
1 | COc1ncc(-c2cc3c(c(OCCN4CCC(C(C)(C)O)CC4)c2)COC3)cc1NS(=O)(=O)CC#N |  |  |  |  |  |  |  |  |  | Papp at 3 h [1]: < 3 nm/s
2 | COc1ncc(-c2cc3c(c(OCCN4CCC(C(C)(C)O)CC4)c2)CCOC3)cc1NS(C)(=O)=O | 6.54 |  |  |  |  |  |  |  |  | 
3 | COc1ncc(-c2cc3c(c(NC(=O)CN4CCOCC4)c2)COC3)cc1NS(C)(=O)=O |  |  |  |  |  |  |  |  | 0.673 | 
4 | COc1ncc(-c2cc(OCCN3CCC(C(C)(C)O)CC3)c3c(c2)[C@@H](C)OC3)cc1NS(C)(=O)=O |  | 9.7 | < 0.9 |  |  |  |  |  |  | 
5 | COc1ncc(-c2cc(OCCN3CCC(C(C)(C)O)CC3)c3c(c2F)COC3)cc1NS(C)(=O)=O |  | 4.5 | < 0.9 |  |  |  |  |  |  | 

Continued, in another order:

Row | clearance [2] [L/h/kg] | Intrinsic clearance (CLint) [3] [mL/min/g] | intrinsic clearance [4] [mL/min/g] | CL [5] [%] | CLH [6] [mL/min/g] | half-life [7] [h] | Vd [8] [L/kg] | solubility kinetic at 1 h [9] [mg/mL] | AUC(0-inf) [10] [µg·h/mL] | Compound | other results
6 |  | 1.6 | < 0.9 | 28 |  |  |  |  |  | COCCS(=O)(=O)Nc1cc(-c2cc3c(c(OCCN4CCC(C(C)(C)O)CC4)c2)COC3)cnc1OC | Papp at 3 h [1]: < 3 nm/s
7 | 2.46 | < 0.9 | < 0.9 |  | < 0.9 | 2.7 | 6.9 | ≥ 0.184 |  | COCCS(=O)(=O)Nc1cc(-c2cc3c(c(OCCN4CCC(C(C)(C)O)CC4)c2)CCOC3)cnc1OC | 
8 | 2.88 | 2.5 | < 0.9 | 62 | < 0.9 | 2.1 | 5.9 | 0.197 (≈ 390 µM) | 0.148 | COc1ncc(-c2cc3c(c(OCCN4CCC(C(C)(C)O)CC4)c2)COC3)cc1NS(C)(=O)=O | bioavailability [11]: 32%; AUC at 24 h [12]: 5 µg·h/mL; AUC at 24 h [13]: 26.3 µg·h/mL; AUC at 4 h [14]: 27.5 µg·h/mL; Time [15]: 24 h; Time [16]: 24 h; Time [17]: 24 h
9 | 1.32 | 1.2 | < 0.3 | 28 | 0.9 | 3.2 | 2 | ≥ 0.27 | 0.829 | COCCS(=O)(=O)Nc1cc(-c2cc3c(c(OC[C@H]4CN(C5COC5)CCO4)c2)COC3)cnc1OC | bioavailability [11]: 84%; AUC at 24 h [18]: 12.6 µg·h/mL; AUC at 24 h [19]: 37.4 µg·h/mL; AUC at 24 h [20]: 114 µg·h/mL; Time [15]: 24 h; Time [16]: 24 h

Source: ChEMBL document CHEMBL4321873, “Optimization of Orally Bioavailable PI3Kδ Inhibitors and Identification of Vps34 as a Key Selectivity Target” (J Med Chem, 2020)
